The molecules below were run on normal human neonatal foreskin epidermal keratinocytes (NHEK-F) (assay: Cell proliferation inhibition test). Conditions: Keratinocyte, 72 h, NHEK-F cells, three days incubation, ATPlite or CellTiterGlo, read-out: IC50 (concentration of the compound at which the cell count is reduced by 50%).
Type: cell-based
Procedure: 2×10^3 normal human neonatal foreskin epidermal keratinocytes (NHEK-F) (Kurabo, KK-4009) were suspended in 100 μL of Humedia-EG2 (Kurabo, KK-2150S) medium, plated in a 96-well plate and incubated overnight. The test compound was added on the following day and the cells were incubated for further three days. The cell count was determined using ATPlite (PerkinElmer, 6016739) or CellTiterGlo (Promega, G7573).
The inhibition rate was calculated from the following formula to determine the concentration of the compound at which the cell count is reduced by 50% (IC50). Inhibition rate (%)=100−(cell count in the presence of test compound/cell count in the absence of test compound)×100
O=C(O)c1cc(C2CC2)cnc1Nc1ccc2c(ccn2Cc2ccncc2)c1 [Example 148, 5-cyclopropyl-2-((1-(pyridin-4-ylmethyl)-1H-indol-5-yl)amino)nicotinic acid] gave an IC50 of 100 to 1000 nM.
Molecule Cc1ccc(-n2ccc3cc(Nc4ccc(Cl)cc4C(=O)O)ccc32)nn1 [Example 100, 5-chloro-2-((1-(6-methylpyridazin-3-yl)-1H-indol-5-yl)amino)benzoic acid] has an IC50 of 100 to 1000 nM.
Molecule Cc1ccc(-c2cn(C)c3ccc(Nc4ncc(C5CC5)cc4C(=O)O)cc23)cc1 [Example 571, 5-cyclopropyl-2-((1-methyl-3-(4-methylphenyl)-1H-indol-5-yl)amino)nicotinic acid] has an IC50 of 10 to 100 nM.
CCCCCCCn1ccc2cc(Nc3ncc(C4CC4)cc3C(=O)O)ccc21 [Example 640, 5-cyclopropyl-2-((1-heptyl-1H-indol-5-yl)amino)nicotinic acid] was tested, and the IC50 was 10 to 100 nM.
Cn1ccc2cc(Nc3ncc(C4CC4)cc3C(=O)O)cc(-c3cc(F)ccc3F)c21 [Example 590, 5-cyclopropyl-2-((7-(2,5-difluorophenyl)-1-methyl-1H-indol-5-yl)amino)nicotinic acid] was tested, and the IC50 was at most 10 nM.
In the case of Cc1cccc(-c2cn(C)c3ccc(Nc4ncc(C5CC5)cc4C(=O)O)cc23)c1 [Example 569, 5-cyclopropyl-2-((1-methyl-3-(3-methylphenyl)-1H-indol-5-yl)amino)nicotinic acid], the IC50 is reported as 100 to 1000 nM.
With COCCCc1cccc(Cn2ccc3cc(Nc4ncc(C5CC5)cc4C(=O)O)ccc32)c1 [Example 509, 5-cyclopropyl-2-((1-(3-(3-methoxypropyl)benzyl)-1H-indol-5-yl)amino)nicotinic acid] the IC50 was at most 10 nM.
Cn1cc(C2CC2)c2cc(Nc3ncc(C4CC4)cc3C(=O)O)ccc21 [Example 393, 5-cyclopropyl-2-((3-cyclopropyl-1-methyl-1H-indol-5-yl)amino)nicotinic acid] showed an IC50 of 10 to 100 nM.
In the case of O=C(O)c1cc(C2CC2)cnc1Nc1ccc2c(cnn2Cc2ccccc2)c1 [Example 395, 2-((1-benzyl-1H-indazol-5-yl)amino)-5-cyclopropylnicotinic acid], the IC50 is reported as 10 to 100 nM.
Work on Cc1ccccc1-c1cn(C)c2ccc(Nc3ncc(C4CC4)cc3C(=O)O)cc12 [Example 567, 5-cyclopropyl-2-((1-methyl-3-(2-methylphenyl)-1H-indol-5-yl)amino)nicotinic acid] yielded an IC50 of 10 to 100 nM.
Cn1cc(-c2cccc(F)c2)c2cc(Nc3ncc(C4CC4)cc3C(=O)O)ccc21 [Example 559, 5-Cyclopropyl-2-((3-(3-fluorophenyl)-1-methyl-1H-indol-5-yl)amino)nicotinic acid] gave an IC50 of 10 to 100 nM.
In the case of O=C(O)c1cc(Cl)ccc1Nc1ccc2c(ccn2Cc2cccc(OCCN3CCOCC3)c2)c1 [Example 296, 5-chloro-2-((1-(3-(2-morpholinoethoxyl)benzyl)-1H-indol-5-yl)amino)benzoic acid], the IC50 is reported as 10 to 100 nM.
CCOCCCc1cc(Nc2ncc(C3CC3)cc2C(=O)O)cc2ccn(C)c12 [Example 603, 5-cyclopropyl-2-((7-(3-ethoxypropyl)-1-methyl-1H-indol-5-yl)amino)nicotinic acid] gave an IC50 of 10 to 100 nM.
In the case of O=C(O)c1cc(C2CC2)cnc1Nc1ccc2c(-c3ccccc3)ncnc2c1 [Example 529, 5-cyclopropyl-2-((4-phenylquinazolin-7-yl)amino)nicotinic acid], the IC50 is reported as 10 to 100 nM.
O=C(O)c1cc(Cl)ccc1Nc1ccnc2c1ccn2Cc1ccccc1 [Example 9, 2-((1-benzyl-1H-pyrrolo(2,3-b)pyridin-4-yl)amino)-5-chlorobenzoic acid] showed an IC50 of 10 to 100 nM.
With O=C(O)c1cc(C(F)(F)F)cnc1Nc1ccc2c(ccn2Cc2ccccc2)c1 [Example 116, 2-((1-benzyl-1H-indol-5-yl)amino)-5-(trifluoromethyl)nicotinic acid] the IC50 was at most 10 nM.
Work on O=C(O)c1cc(C2CC2)cnc1Nc1ccc2c(-c3ccccc3)cccc2c1 [Example 177, 5-cyclopropyl-2-((5-phenylnaphthalen-2-yl)amino)nicotinic acid] yielded an IC50 of at most 10 nM.
O=C(O)c1cc(C2CC2)cnc1Nc1ccc2c(-c3ccccc3)c[nH]c2c1 [Example 43, 5-cyclopropyl-2-((3-phenyl-1H-indol-6-yl)amino)nicotinic acid] was tested, and the IC50 was 10 to 100 nM.
O=C(O)c1cc(Cl)ccc1Nc1ccc2c(ccn2-c2cscn2)c1 [Example 271, 5-chloro-2-((1-(thiazol-4-yl)-1H-indol-5-yl)amino)benzoic acid] gave an IC50 of 10 to 100 nM.
COc1ccc(-c2cn(C)c3ccc(Nc4ncc(C5CC5)cc4C(=O)O)cc23)cc1 [Example 579, 5-cyclopropyl-2-((3-(4-methoxyphenyl)-1-methyl-1H-indol-5-yl)amino)nicotinic acid] gave an IC50 of 100 to 1000 nM.
For Cc1cc2cc(Nc3ncc(C4CC4)cc3C(=O)O)ccc2n1CC(C)C [Example 550, 5-cyclopropyl-2-((1-isobutyl-2-methyl-1H-indol-5-yl)amino)nicotinic acid], the IC50 was 10 to 100 nM.
In the case of Cn1ccc2cc(Nc3ncc(C4CC4)cc3C(=O)O)cc(-c3ccccn3)c21 [Example 500, 5-cyclopropyl-2-((1-methyl-7-(pyridin-2-yl)-1H-indol-5-yl)amino)nicotinic acid], the IC50 is reported as 10 to 100 nM.
CCCCCn1ccc2cc(Nc3ncc(C4CC4)cc3C(=O)O)cc(CCCOC)c21 [Example 610, 5-cyclopropyl-2-((7-(3-methoxypropyl)-1-pentyl-1H-indol-5-yl)amino)nicotinic acid] showed an IC50 of at most 10 nM.
O=C(O)c1cc(C2CC2)cnc1Nc1cccc2c(-c3ccccc3)nccc12 [Example 185, 5-cyclopropyl-2-((1-phenylisoquinolin-5-yl)amino)nicotinic acid] gave an IC50 of at most 10 nM.
O=C(O)c1cc(C2CC2)cnc1Nc1cccc2c1ccn2CC1CCCCO1 (stereo not drawn) [Example 423, 5-cyclopropyl-2-((1-((tetrahydro-2H-pyran-2-yl)methyl)-1H-indol-4-yl)amino)nicotinic acid] gave an IC50 of 10 to 100 nM.
Cc1ccc(-c2cc(Nc3ncc(C4CC4)cc3C(=O)O)cc3ccn(C)c23)cc1 [Example 478, 5-cyclopropyl-2-((1-methyl-7-(p-tolyl)-1H-indol-5-yl)amino)nicotinic acid] gave an IC50 of at most 10 nM.
With Cn1c(C(C)(C)C)cc2cc(Nc3ncc(C4CC4)cc3C(=O)O)ccc21 [Example 157, 2-((2-(tert-butyl)-1-methyl-1H-indol-5-yl)amino)-5-cyclopropylnicotinic acid] the IC50 was 100 to 1000 nM.
In the case of CCc1cnc(Nc2ccc3c(ccn3Cc3ccccc3)c2)c(C(=O)O)c1 [Example 381, 2-((1-benzyl-1H-indol-5-yl)amino)-5-ethylnicotinic acid], the IC50 is reported as 10 to 100 nM.
CC(C)n1ccc2cc(Nc3ncc(C4CC4)cc3C(=O)O)ccc21 [Example 123, 5-cyclopropyl-2-((1-isopropyl-1H-indol-5-yl)amino)nicotinic acid] showed an IC50 of 10 to 100 nM.
Work on Cn1cc(C2CCCCC2)c2cc(Nc3ncc(C4CC4)cc3C(=O)O)ccc21 [Example 612, 2-((3-cyclohexyl-1-methyl-1H-indol-5-yl)amino)-5-cyclopropylnicotinic acid] yielded an IC50 of 10 to 100 nM.
Work on Cn1ccc2cc(Nc3ncc(C4CC4)cc3C(=O)O)cc(-c3cccc(C(F)(F)F)c3)c21 [Example 480] yielded an IC50 of at most 10 nM.
For Cn1ccc2cc(Nc3ncc(C4CC4)cc3C(=O)O)cc(-c3cc(F)cc(F)c3)c21 [Example 586, 5-cyclopropyl-2-((7-(3,5-difluorophenyl)-1-methyl-1H-indol-5-yl)amino)nicotinic acid], the IC50 was at most 10 nM.
In the case of O=C(O)c1cc(C2CC2)cnc1Nc1cccc2c1ccn2CC1CC1 [Example 437, 5-cyclopropyl-2-((1-(cyclopropylmethyl)-1H-indol-4-yl)amino)nicotinic acid], the IC50 is reported as 10 to 100 nM.
For O=C(O)c1cc(C2CC2)cnc1Nc1ccc2c(ccn2C(=O)C2CCCCC2)c1 [Example 583, 2-((1-(cyclohexylcarbonyl)-1H-indol-5-yl)amino)-5-cyclopropylnicotinic acid], the IC50 was 10 to 100 nM.
For CC(C)n1ccc2c(Nc3ncc(C4CC4)cc3C(=O)O)cccc21 [Example 435, 5-cyclopropyl-2-((1-isopropyl-1H-indol-4-yl)amino)nicotinic acid], the IC50 was 10 to 100 nM.
In the case of COC/C=C/c1cc(Nc2ncc(C3CC3)cc2C(=O)O)cc2ccn(C)c12 [Example 467, (E)-5-cyclopropyl-2-((7-(3-methoxyprop-1-en-1-yl)-1-methyl-1H-indol-5-yl)amino)nicotinic acid], the IC50 is reported as 10 to 100 nM.
In the case of Cn1ccc2cc(Nc3ncc(C4CC4)cc3C(=O)O)cc(-c3ccccc3OC(F)(F)F)c21 [Example 491, 5-cyclopropyl-2-((1-methyl-7-(2-(trifluoromethoxy)phenyl)-1H-indol-5-yl)amino)nicotinic acid], the IC50 is reported as at most 10 nM.
Molecule CC(C)Cn1c(=O)sc2cc(Nc3ncc(C4CC4)cc3C(=O)O)ccc21 [Example 563, 5-Cyclopropyl-2-((3-isobutyl-2-oxo-2,3-dihydro-1,3-benzothiazol-6-yl)amino)nicotinic acid] has an IC50 of 10 to 100 nM.
With O=C(O)c1cc(C2CC2)cnc1Nc1ccc2c(ccn2Cc2c(F)cccc2F)c1 [Example 634, 5-cyclopropyl-2-((1-(2,6-difluorobenzyl)-1H-indol-5-yl)amino)nicotinic acid] the IC50 was at most 10 nM.
O=C(O)c1cc(C2CC2)cnc1Nc1cccc2c1ccn2CC1CCOC1 (stereo not drawn) [Example 427, 5-cyclopropyl-2-((1-((tetrahydrofuran-3-yl)methyl)-1H-indol-4-yl)amino)nicotinic acid] gave an IC50 of 10 to 100 nM.
In the case of COCCn1ccc2cc(Nc3ncc(C4CC4)cc3C(=O)O)ccc21 [Example 129, 5-cyclopropyl-2-((1-(2-methoxyethyl)-1H-indol-5-yl)amino)nicotinic acid], the IC50 is reported as 100 to 1000 nM.
With O=C(O)c1cc(C2CC2)cnc1Nc1ccc2c(ccn2Cc2cc(C(F)(F)F)cc(C(F)(F)F)c2)c1 [Example 499, 2-((1-(3,5-bis(trifluoromethyl)benzyl)-1H-indol-5-yl)amino)-5-cyclopropylnicotinic acid] the IC50 was at most 10 nM.

— patent publication US9624215B2, “Amine derivative or salt thereof” (TOYAMA CHEMICAL CO., LTD., priority 2012, dated 2017)
